Laboratory results from article PMC9424819, “Evaluation of commonly used cardiovascular drugs in inhibiting vonoprazan metabolism in vitro and in vivo” (Frontiers in Pharmacology, 2022).
Counter-ions that a name gives are not always drawn. Like-named read-outs stand apart in the source and are kept apart here.

How the values were obtained:
[1] = tested on: vonoprazan metabolism (MI formation) in rat liver microsomes; assay: Inhibition of vonoprazan metabolism (MI formation) in rat liver microsome incubation; assay type: in vitro ADME; conditions: rat, rat liver microsomes, pH 7.4, probe vonoprazan (10 µM), metabolite MI measured; RLMs, 10 µM vonoprazan, MI formation
Method: (§1) Eleven common-used cardiovascular drugs were chosen to detect their possible inhibition effect on vonoprazan. […] After preincubation at 37°C for 5 min in a shaking water bath, 20 mM NADPH was added to initiate the reaction, which lasted 30 min and was stopped with […] of acetonitrile. The mixture was vortexed after adding 20 µL of diazepam and then centrifugated at 13,000 rpm for 5 min. A 2 µL aliquot of the final supernatant was injected into the UPLC–MS/MS system for analysis. The relative inhibition was calculated according to the relative MI decrease compared to the control (vonoprazan naturally metabolized in RLMs). […] The same procedures were performed. Then, an inhibition mechanism experiment was conducted for further exploration. […] Both inhibitor and substrate were added to the incubation system described above. Every concentration match had three parallels. The MI concentration was detected using the same conditions to depict the Lineweaver–Burk and Dixon plots.
(§2) The concentrations of vonoprazan and MI that were detected by UPLC-MS/MS were applied to GraphPad 7.0 (GraphPad Software Inc., United States) to calculate IC50 and depict plasma concentration-time curves and Lineweaver–Burk and Dixon plots. The pharmacokinetic parameters of the compartment analysis were calculated using DAS (version 3.2.8; The People’s Hospital of Lishui) and expressed as mean ± standard deviation. The t-test was carried out by SPSS 25.0 (SPSS Inc., United States) to compare those parameters. p value < 0.05 was considered statistically significant.

[2] = tested on: vonoprazan metabolism in rat liver microsomes (RLMs); assay: as above; assay type: in vitro ADME
Method: as §1, §2

[3] = tested on: vonoprazan metabolism (MI formation) in human liver microsomes; assay: in vitro; conditions: pH 7.4
[4] = Pharmacokinetics of vonoprazan and MI in rats with or without inhibitor pretreatment; assay type: in vivo, Sprague-Dawley rats; conditions: for AUC(0-inf) / AUC(0-t) / Cmax / Tmax / CL/F / MRT last / MRT inf / Vd/F / half-life: male, Sprague-Dawley, rat, plasma, po, 2 mg/kg; for CL/F: read-out: CLz/F (converted); for MRT last: read-out: MRT(0-t); for MRT inf: read-out: MRT(0-∞); for Vd/F: read-out: Vz/F; for half-life: read-out: t1/2z (converted)
Method: The Experimental Animal Research Center of Wenzhou Medical University provided specific pathogen-free (SPF) Sprague-Dawley rats (male, 350 ± 20 g, 3 months old). This research was conducted following the principles of the Basel Declaration. […] After one week of rearing in the new environment and fasting overnight, the drug could be gavaged.
Rats were randomly divided into three groups (n = 6). […] After 7 days, on the seventh day, all groups had gavage at a single dosage of 2 mg/kg vonoprazan.
Centrifugation at 4,000 rpm for 10 min was performed to obtain 100 µL of plasma, to which was added 200 µL of acetonitrile and 20 µL of diazepam IS. After vortex mixing and centrifugation at 13,000 rpm for 5 min, 5 µL of supernatant was obtained for analysis by UPLC-MS/MS.
as §2

[5] = amlodipine-pretreated group vs control group, rats
[6] = Amlodipine group (10 mg/kg amlodipine 7 days), single gavage 2 mg/kg vonoprazan, rat plasma
[7] = Control group (CMC-Na 7 days), single gavage 2 mg/kg vonoprazan, rat plasma

Row | SMILES | increase of AUC [4, 5] | AUC(0-inf) [4, 6] [ng·h/mL] | AUC(0-t) [4, 6] [ng·h/mL] | Cmax [4, 6] [ng/mL] | Tmax [4, 6] [h] | CL/F [4, 6] [mL/min/kg] | MRT last [4, 6] [h] | Vd/F [4, 6] [L/kg] | half-life [4, 6] [h] | AUC(0-inf) [4, 7] [ng·h/mL] | AUC(0-t) [4, 7] [ng·h/mL] | Cmax [4, 7] [ng/mL] | Tmax [4, 7] [h] | CL/F [4, 7] [mL/min/kg] | MRT last [4, 7] [h] | MRT inf [4, 7] [h] | Vd/F [4, 7] [L/kg] | half-life [4, 7] [h] | other results
1 | CCOC(=O)C1=C(COCCN)NC(C)=C(C(=O)OC)C1c1ccccc1Cl (centres unmarked) [Amlodipine, amlodipine besylate] |  |  |  |  |  |  |  |  |  |  |  |  |  |  |  |  |  |  | IC50 at 30 min [1]: 17 µM; inhibition mechanism on vonoprazan metabolism ([2]; RLMs and HLMs, Lineweaver–Burk and Dixon plots): primarily competitive with some non-competitive inhibition; IC50 at 30 min [3]: 7.2 µM
2 | COc1ccc([C@@H]2Sc3ccccc3N(CCN(C)C)C(=O)[C@@H]2OC(C)=O)cc1 [Diltiazem, diltiazem hydrochloride] |  |  |  |  |  |  |  |  |  |  |  |  |  |  |  |  |  |  | inhibition effect on vonoprazan in preliminary in vitro evaluation ([2]; RLMs, roughly 100 µM drug): slightly increased inhibition effects
3 | O=C(O)c1cc(-c2ccccc2F)n(S(=O)(=O)c2cccnc2)c1 [MI, 5-(2-fluorophenyl)-1-(pyridin-3-ylsulfonyl)-1H-pyrrole-3-carboxylic acid] | 1.6 fold | 2580 ± 450 | 2550 ± 459 | 836 ± 176 | 1.58 ± 0.67 | 13.2 | 2.92 ± 0.19 | 2.25 ± 1.11 | 1.91 ± 0.76 | 1570 ± 189 | 1540 ± 175 | 766 ± 85.1 | 1 | 21.5 | 2.13 ± 0.14 | 2.44 ± 0.26 | 5.28 ± 2.5 | 2.91 ± 1.51 | fall of CLz/F [4, 5]: 38%; fall of Vz/F [4, 5]: 57%; increase of MRT (0-t) [4, 5]: 1.4 fold; increase of MRT (0-∞) [4, 5]: 1.2 fold; MRT inf [4, 6]: 3.11 ± 0.31 h
4 | CNCc1cc(-c2ccccc2F)n(S(=O)(=O)c2cccnc2)c1 [Vonoprazan, vonoprazan] | nearly twice | 59 ± 20.9 | 58.5 ± 21.1 | 19 ± 8.3 | 1.67 ± 0.52 | 614 | 2.93 ± 0.3 | 95.5 ± 51.3 | 1.73 ± 0.65 | 29.1 ± 5.31 | 28.8 ± 5.14 | 10.2 ± 1.88 | 0.75 ± 0.27 | 1180 | 2.72 ± 0.09 | 2.87 ± 0.17 | 190 ± 41.6 | 1.89 ± 0.37 | MRT(0-∞) [4, 6]: 3.06 ± 0.38 h; decrease of CLz/F [4, 5]: approximately by half; decrease of Vz/F [4, 5]: approximately by half; increase of Cmax [4, 5]: nearly twice; increase of Tmax [4, 5]: nearly twice
